The EC50 is the concentration giving half of the maximal effect.

The values that follow come from patent US9751869B2, “LXR modulators” (BRISTOL-MYERS SQUIBB COMPANY, priority 2013, dated 2017).

The target of the assay is T1, LXRβ (Homo sapiens, UniProt P55055).
T1 construct: Co-transfection expression plasmids, comprising full-length LXRα (pCMX-h LXRα or LXRβ (pCMX-hLXRβ)); expressed in transfected cells; host or cells: CV-1 African green monkey kidney cells, transient transfection with pCMX-hLXRβ
T1 sequence (P55055 1-460): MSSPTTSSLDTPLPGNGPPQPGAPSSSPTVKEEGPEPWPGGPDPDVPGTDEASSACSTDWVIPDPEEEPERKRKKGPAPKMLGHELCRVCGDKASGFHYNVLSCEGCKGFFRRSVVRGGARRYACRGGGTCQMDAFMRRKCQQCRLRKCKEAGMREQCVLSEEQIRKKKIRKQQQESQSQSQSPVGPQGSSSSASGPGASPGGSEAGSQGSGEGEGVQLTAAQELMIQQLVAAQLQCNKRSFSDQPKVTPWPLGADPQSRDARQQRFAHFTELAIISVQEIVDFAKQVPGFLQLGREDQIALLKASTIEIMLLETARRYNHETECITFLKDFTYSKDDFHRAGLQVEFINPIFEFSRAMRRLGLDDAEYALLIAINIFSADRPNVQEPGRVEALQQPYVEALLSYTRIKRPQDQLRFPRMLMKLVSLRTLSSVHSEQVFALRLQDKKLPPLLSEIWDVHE
T1 sequence (P19793 1-462 partner): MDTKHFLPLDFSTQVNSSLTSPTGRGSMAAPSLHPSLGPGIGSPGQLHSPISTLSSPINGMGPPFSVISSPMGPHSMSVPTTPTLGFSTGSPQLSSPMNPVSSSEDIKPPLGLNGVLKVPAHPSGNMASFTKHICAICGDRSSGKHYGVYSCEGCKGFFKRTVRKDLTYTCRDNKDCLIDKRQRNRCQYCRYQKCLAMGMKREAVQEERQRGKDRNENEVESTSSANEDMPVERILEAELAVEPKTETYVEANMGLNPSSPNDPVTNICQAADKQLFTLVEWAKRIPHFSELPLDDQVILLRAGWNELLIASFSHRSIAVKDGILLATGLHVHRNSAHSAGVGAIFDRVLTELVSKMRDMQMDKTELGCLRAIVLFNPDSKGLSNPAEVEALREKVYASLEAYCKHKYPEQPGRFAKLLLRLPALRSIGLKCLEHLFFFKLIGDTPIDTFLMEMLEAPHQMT
The experiment in a line: LXR/LXRE co-transfection assay (luciferase reporter) in CV-1 cells, LXRβ. In kind it is cell-based. The following applies: for EC50: CV-1 cells transfected with pCMX-hLXRβ and LXREx1-Tk-Luciferase, 20 hours incubation, read-out: LXRbeta agonism EC50; for Emax / LXRbeta % EFFICACY: CV-1 cells, relative to maximum response of high control N-(3-((4-fluorophenyl)-(naphthalene-2-sulfonyl)amino)propyl)-2,2-dimethylpropionamide; for Emax: read-out: LXRbeta % EFFICACY
The method in brief: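 Luciferase read-out after 20 h compound treatment at 37 °C of CV-1 cells carrying transfected hLXRβ plus one-copy LXRE reporter, endogenous RXR partnering. Sigmoidal fit of 10-point half-log curves (4 wells each) gave EC50; % efficacy versus maximal response of the propionamide reference agonist.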

For `Cc1nc(-c2ccc3c(c2)OC(F)(F)O3)c(-c2cc(-c3cc(F)c(CO)c(S(C)(=O)=O)c3)ccc2-c2cc(C(=O)NC3CC3)nn2C)o1` [Example 108, N-cyclopropyl-5-(3-(4-(2,2-difluorobenzo[d][1,3]dioxol-5-yl)-2-methyloxazol-5-yl)-3′-fluoro-4′-(hydroxymethyl)-5′-(methylsulfonyl)-[1,1′-biphenyl]-4-yl)-1-methyl-1H-pyrazole-3-carboxamide], the EC50 turned out to be 529 nM and the Emax was 30%.
Turning to `Cc1nc(-c2ccc3c(c2)OC(F)(F)O3)c(-c2cc(-c3cccc(S(C)(=O)=O)c3)ccc2-c2cc(C(=O)NCC3CC3)nn2C)o1` [Example 109, N-(cyclopropylmethyl)-5-(3-(4-(2,2-difluorobenzo[d][1,3]dioxol-5-yl)-2-methyloxazol-5-yl)-3′-(methylsulfonyl)-[1,1′-biphenyl]-4-yl)-1-methyl-1H-pyrazole-3-carboxamide], the EC50 came out at 356 nM and the Emax was 52%.
Take `Cc1nc(-c2ccc3c(c2)OC(F)(F)O3)c(-c2cc(-c3cc(F)c(CO)c(S(C)(=O)=O)c3)ccc2-c2cc(C(=O)NCC3CC3)nn2C)o1` [Example 110, N-(cyclopropylmethyl)-5-(3-(4-(2,2-difluorobenzo[d][1,3]dioxol-5-yl)-2-methyloxazol-5-yl)-3′-fluoro-4′-(hydroxymethyl)-5′-(methylsulfonyl)-[1,1′-biphenyl]-4-yl)-1-methyl-1H-pyrazole-3-carboxamide]: the EC50 was determined as 244 nM and the Emax is 55%.
As to `Cc1nc(-c2ccc3c(c2)OC(F)(F)O3)c(-c2cc(-c3cccc(S(C)(=O)=O)c3)ccc2-c2cc(C(=O)NCC(F)(F)F)nn2C)o1` [Example 111, 5-(3-(4-(2,2-difluorobenzo[d][1,3]dioxol-5-yl)-2-methyloxazol-5-yl)-3′-(methylsulfonyl)-[1,1′-biphenyl]-4-yl)-1-methyl-N-(2,2,2-trifluoroethyl)-1H-pyrazole-3-carboxamide], the 50% effective concentration (EC50) worked out at 284 nM and the Emax was 51%.
For the compound `Cc1nc(-c2ccc3c(c2)OC(F)(F)O3)c(-c2cc(-c3cc(F)c(CO)c(S(C)(=O)=O)c3)ccc2-c2cc(C(=O)NCC(F)(F)F)nn2C)o1` [Example 112, 5-(3-(4-(2,2-difluorobenzo[d][1,3]dioxol-5-yl)-2-methyloxazol-5-yl)-3′-fluoro-4′-(hydroxymethyl)-5′-(methylsulfonyl)-[1,1′-biphenyl]-4-yl)-1-methyl-N-(2,2,2-trifluoroethyl)-1H-pyrazole-3-carboxamide], the EC50 is 257 nM and the Emax was 33%.
For `Cc1nc(-c2ccc3c(c2)OC(F)(F)O3)c(-c2cc(-c3cccc(S(C)(=O)=O)c3)ccc2-c2cc(C(=O)NC(C)(C)C)nn2C)o1` [Example 113, N-(tert-butyl)-5-(3-(4-(2,2-difluorobenzo[d][1,3]dioxol-5-yl)-2-methyloxazol-5-yl)-3′-(methylsulfonyl)-[1,1′-biphenyl]-4-yl)-1-methyl-1H-pyrazole-3-carboxamide], the EC50 turned out to be 344 nM and the Emax came to 37%.
Taken in the same sequence, the figures for `Cc1nc(-c2ccc3c(c2)OC(F)(F)O3)c(-c2cc(-c3cc(F)c(CO)c(S(C)(=O)=O)c3)ccc2-c2cc(C(=O)NC(C)(C)C)nn2C)o1` [Example 114, N-(tert-butyl)-5-(3-(4-(2,2-difluorobenzo[d][1,3]dioxol-5-yl)-2-methyloxazol-5-yl)-3′-fluoro-4′-(hydroxymethyl)-5′-(methylsulfonyl)-[1,1′-biphenyl]-4-yl)-1-methyl-1H-pyrazole-3-carboxamide] were 273 nM and 28%.
Consider `Cc1nc(-c2ccc3c(c2)OC(F)(F)O3)c(-c2cc(-c3cc(F)c(CO)c(S(C)(=O)=O)c3)ccc2-c2cc(C(C)C#N)nn2C)o1` (stereo not shown) [Example 115, 2-(5-(3-(4-(2,2-difluorobenzo[d][1,3]dioxol-5-yl)-2-methyloxazol-5-yl)-3′-fluoro-4′-(hydroxymethyl)-5′-(methylsulfonyl)-[1,1′-biphenyl]-4-yl)-1-methyl-1H-pyrazol-3-yl)propanenitrile], for which the EC50 stood at 19 nM and the Emax was found to be 62%.
As to `Cc1nc(-c2ccc3c(c2)OC(F)(F)O3)c(-c2cc(-c3cccc(S(C)(=O)=O)c3)ccc2-c2cc(C(C)C#N)nn2C)o1` (stereo not shown) [Example 116, 2-(5-(3-(4-(2,2-difluorobenzo[d][1,3]dioxol-5-yl)-2-methyloxazol-5-yl)-3′-(methylsulfonyl)-[1,1′-biphenyl]-4-yl)-1-methyl-1H-pyrazol-3-yl)propanenitrile], the EC50 was 26 nM and the “LXRbeta % EFFICACY” value is given as 99%.
Taken in the same sequence, the figures for `Cc1nc(-c2ccc3c(c2)OC(F)(F)O3)c(-c2cc(-c3cccc(S(C)(=O)=O)c3)ccc2-c2cc(C(C)C#N)nn2C)o1` (stereo not shown) [Example 117, 2-(5-(3-(4-(2,2-difluorobenzo[d][1,3]dioxol-5-yl)-2-methyloxazol-5-yl)-3′-(methylsulfonyl)-[1,1′-biphenyl]-4-yl)-1-methyl-1H-pyrazol-3-yl)propanenitrile] were 49 nM and 70%.
Consider `Cc1nc(-c2ccc3c(c2)OC(F)(F)O3)c(-c2cc(-c3cccc(S(C)(=O)=O)c3)ccc2-c2cc(C3(C#N)CC3)nn2C)o1` [Example 118, 1-(5-(3-(4-(2,2-difluorobenzo[d][1,3]dioxol-5-yl)-2-methyloxazol-5-yl)-3′-(methylsulfonyl)-[1,1′-biphenyl]-4-yl)-1-methyl-1H-pyrazol-3-yl) cyclopropanecarbonitrile], for which the EC50 was 7 nM and the Emax amounted to 86%.
As to `Cc1nc(-c2ccc3c(c2)OC(F)(F)O3)c(-c2cc(-c3cccc(S(C)(=O)=O)c3)ccc2-c2cc(CC(N)=O)nn2C)o1` [Example 119, 2-(5-(3-(4-(2,2-difluorobenzo[d][1,3]dioxol-5-yl)-2-methyloxazol-5-yl)-3′-(methylsulfonyl)-[1,1′-biphenyl]-4-yl)-1-methyl-1H-pyrazol-3-yl)acetamide], the EC50 was 1080 nM and the Emax worked out at 60%.
With `Cc1nc(-c2ccc3c(c2)OC(F)(F)O3)c(-c2cc(-c3cc(F)c(CO)c(S(C)(=O)=O)c3)ccc2-c2cc(CC(C)(C)O)nn2C)o1` [Example 120, 1-(5-(3-(4-(2,2-difluorobenzo[d][1,3]dioxol-5-yl)-2-methyloxazol-5-yl)-3′-fluoro-4′-(hydroxymethyl)-5′-(methylsulfonyl)-[1,1′-biphenyl]-4-yl)-1-methyl-1H-pyrazol-3-yl)-2-methylpropan-2-ol], the EC50 came to 46 nM and the Emax was determined as 32%.
Taken in the same sequence, the figures for `Cc1nc(-c2ccc3c(c2)OC(F)(F)O3)c(-c2cc(-c3cccc(S(C)(=O)=O)c3)ccc2-c2cc(CC(C)(C)O)nn2C)o1` [Example 121, 1-(5-(3-(4-(2,2-difluorobenzo[d][1,3]dioxol-5-yl)-2-methyloxazol-5-yl)-3′-(methylsulfonyl)-[1,1′-biphenyl]-4-yl)-1-methyl-1H-pyrazol-3-yl)-2-methylpropan-2-ol] were 175 nM and 40%.
`Cc1nc(-c2ccc3c(c2)OC(F)(F)O3)c(-c2cc(-c3cc(F)c(CO)c(S(C)(=O)=O)c3)ccc2-c2cc(C#N)nn2C)o1` [Example 122, 5-(3-(4-(2,2-difluorobenzo[d][1,3]dioxol-5-yl)-2-methyloxazol-5-yl)-3′-fluoro-4′-(hydroxymethyl)-5′-(methylsulfonyl)-[1,1′-biphenyl]-4-yl)-1-methyl-1H-pyrazole-3-carbonitrile]: the 50% effective concentration (EC50) is 63 nM and the Emax turned out to be 22%.
Taken in the same sequence, the figures for `Cc1nc(-c2ccc3c(c2)OC(F)(F)O3)c(-c2cc(-c3cccc(S(C)(=O)=O)c3)ccc2-c2cc(C#N)nn2C)o1` [Example 123, 5-(3-(4-(2,2-difluorobenzo[d][1,3]dioxol-5-yl)-2-methyloxazol-5-yl)-3′-(methylsulfonyl)-[1,1′-biphenyl]-4-yl)-1-methyl-1H-pyrazole-3-carbonitrile] were 94 nM and 35%.
Taken in the same sequence, the figures for `Cc1nc(-c2ccc(OC(F)(F)F)cc2)c(-c2cc(-c3cccc(S(C)(=O)=O)c3)ccc2-c2cc(C(=O)NCC(C)(C)O)nn2C)o1` [Example 124] were 769 nM and 24%.
